We go through one molecule from ChEMBL document CHEMBL6177981, “Bardoxolone Derivatives as Novel Pseudo-Natural Necroptosis Inhibitors by Destabilizing HSP90 Client Proteins” (J Med Chem, 2025).

Calls of active or inactive are those of the source. The calls are words filed in the database; no cut-off is given here.

Series [1] concerns Mus musculus. The experiment in a line: Anti-necroptotic activity in TNFalpha/Z-VAD-FMK induced SIRS male C57BL/6J mouse model assessed as reduction in IL-1beta in intestine at 5 to 10 mg/kg, po pre-administered with compound via gavage for 2 hrs followed by […] of Z-VAD-FMK stimulation for 15 mins with subsequent TNF-alpha stimulation for 1 hrs and re-current […] of Z-VAD-FMK stimulation and measured after 8 hrs post SIRS induction by ELISA. The conditions noted are these: dose 5-10 mg/kg, time 10.0 hrs. The format is functional, organism-based. In general terms: An ELISA detects its analyte on a solid surface through an enzyme-linked reagent.

The test system of series [2] is HT-29. As to the kind of experiment: Downregulation of RIPK1 protein level in human HT-29 cell supernatant at 6 uM measured after 9 hrs by Western blot analysis. The format is functional, cell-based. (Immunoblotting shows a protein as a band on a membrane.)
Series [3] concerns Mus musculus. The experiment in a line: Anti-necroptotic activity in TNFalpha/Z-VAD-FMK induced SIRS male C57BL/6J mouse model assessed as reduction in IL6 in brain at 5 to 10 mg/kg, po pre-administered with compound via gavage for 2 hrs followed by […] of Z-VAD-FMK stimulation for 15 mins with subsequent TNF-alpha stimulation for 1 hrs and re-current […] of Z-VAD-FMK stimulation and measured after 8 hrs post SIRS induction by ELISA. The conditions noted are these: dose 5-10 mg/kg, time 10.0 hrs. It counts as functional, organism-based.

Series [4] can be described thus: Acute toxicity in male C57BL/6J mouse assessed as structural changes in stomach at 2 g/Kg, IG measured after 72 hrs by H and E staining based analysis. The format is tissue-based. The conditions noted are these: in vivo, po, 2000 mg/kg.
Series [5] is described as follows: Acute toxicity in male C57BL/6J mouse assessed as structural changes in heart at 2 g/Kg, IG measured after 72 hrs by H and E staining based analysis. The note with it: in vivo, po, 2000 mg/kg. It counts as tissue-based.
Series [6] has as its system HT-29. The experiment in a line: Downregulation of EGFR expression in human HT-29 cells at 0.75 to 6 uM incubated for 9 hrs by Western blot analysis. It counts as functional, cell-based. The note with it: dose 0.75-6 µM.
Series [7] can be described thus: Acute toxicity in male C57BL/6J mouse assessed as hemorrhage in kidney at 2 g/Kg, IG measured after 72 hrs by H and E staining based analysis. The format is tissue-based. The conditions noted are these: in vivo, po, 2000 mg/kg.
A short description of series [8]: Acute toxicity in male C57BL/6J mouse assessed as inflammatory cell infiltration in lung at 2 g/Kg, IG measured after 72 hrs by H and E staining based analysis. It counts as tissue-based. The conditions noted are these: in vivo, po, 2000 mg/kg.
Series [9] relates to HT-29. As to the kind of experiment: Downregulation of MLKL protein level in human HT-29 cells at 3 to 6 uM incubated for 9 hrs by Western blot analysis. The format is functional, cell-based. The conditions noted are these: dose 3-6 µM.
Series [10] concerns HT-29. The experiment in a line: Downregulation of total RIPK3 protein level in TSZ-induced human HT-29 cells at 10 uM preincubated with compound followed by Z-VAD-FMK, SM164 and TNFalpha stimulation and measured after 6 hrs by Western blot analysis. The format is functional, cell-based.
The subject of series [11] is HT-29. As to the kind of experiment: Downregulation of RIPK1 protein level in human HT-29 cells incubated for 9 hrs by Western blot analysis. It counts as functional, cell-based. The note with it: dose 0.75-6 µM.
Series [12] deals with Mus musculus. The experiment in a line: Anti-necroptotic activity in TNFalpha/Z-VAD-FMK induced SIRS male C57BL/6J mouse model assessed as reduction in IL6 in intestine at 5 to 10 mg/kg, po pre-administered with compound via gavage for 2 hrs followed by […] of Z-VAD-FMK stimulation for 15 mins with subsequent TNF-alpha stimulation for 1 hrs and re-current […] of Z-VAD-FMK stimulation and measured after 8 hrs post SIRS induction by ELISA. It counts as functional, organism-based. The conditions noted are these: dose 5-10 mg/kg, time 10.0 hrs.

For series [13], the target named is T1, Receptor-interacting serine/threonine-protein kinase 1 (Homo sapiens) (UniProt Q13546).
T1 sequence (whole entry): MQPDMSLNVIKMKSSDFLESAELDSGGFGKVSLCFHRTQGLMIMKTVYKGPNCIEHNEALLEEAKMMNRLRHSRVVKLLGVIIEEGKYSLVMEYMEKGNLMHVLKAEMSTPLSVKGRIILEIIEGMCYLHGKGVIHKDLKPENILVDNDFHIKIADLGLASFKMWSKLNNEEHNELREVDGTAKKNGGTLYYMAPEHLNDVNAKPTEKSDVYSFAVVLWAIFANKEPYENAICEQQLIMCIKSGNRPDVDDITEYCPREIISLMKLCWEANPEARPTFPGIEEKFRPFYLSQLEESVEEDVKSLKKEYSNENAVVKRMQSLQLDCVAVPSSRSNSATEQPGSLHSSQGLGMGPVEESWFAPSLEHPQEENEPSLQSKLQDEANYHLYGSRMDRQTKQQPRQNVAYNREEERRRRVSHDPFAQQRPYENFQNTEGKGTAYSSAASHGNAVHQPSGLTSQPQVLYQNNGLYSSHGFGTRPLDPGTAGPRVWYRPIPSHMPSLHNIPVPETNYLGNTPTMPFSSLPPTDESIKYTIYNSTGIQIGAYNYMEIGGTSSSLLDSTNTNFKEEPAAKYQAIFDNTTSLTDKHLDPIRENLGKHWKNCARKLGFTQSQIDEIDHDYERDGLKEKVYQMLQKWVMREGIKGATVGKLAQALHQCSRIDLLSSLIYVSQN
As to the kind of experiment: Inhibition of RIPK1 phosphorylation at S166 residue in TSZ-induced human HT-29 cells at 10 uM preincubated with compound followed by Z-VAD-FMK, SM164 and TNFalpha stimulation and measured after 6 hrs by Western blot analysis. The format is cell-based.

Series [14] has as its system Mus musculus. As to the kind of experiment: Anti-necroptotic activity in TNFalpha/Z-VAD-FMK induced SIRS male C57BL/6J mouse model assessed as reduction in IL6 in lung at 5 to 10 mg/kg, po pre-administered with compound via gavage for 2 hrs followed by […] of Z-VAD-FMK stimulation for 15 mins with subsequent TNF-alpha stimulation for 1 hrs and re-current […] of Z-VAD-FMK stimulation and measured after 8 hrs post SIRS induction by ELISA. The format is functional, organism-based. The conditions noted are these: dose 5-10 mg/kg, time 10.0 hrs.

The target of series [15] is T1, Receptor-interacting serine/threonine-protein kinase 1 (Homo sapiens). The experiment in a line: Inhibition of RIPK1 activation in TSZ-induced human HT-29 cells at 10 uM preincubated with compound followed by Z-VAD-FMK, SM164 and TNFalpha stimulation and measured after 6 hrs by Western blot analysis. It counts as cell-based.
For series [16], the system named is HeLa. The experiment in a line: Inhibition of RIPK1 protein expression in RIPK3-deficient human HeLa cells at 6 uM preincubated with MG132 for 2 hrs followed by compound addition and measured after 9 hrs by Western blot analysis. The format is functional, cell-based.
The subject of series [17] is L929. The experiment in a line: Anti-necroptotic activity in TZ-induced mouse L929 cells assessed as increase in cell viability preincubated with Z-VAD-FMK followed by mTNFalpha stimulation for 4 hrs and measured after compound addition by CellTiter-Lumi luminescent cell viability assay. It counts as functional, cell-based.
For series [18], the system named is RAW264.7. The experiment in a line: Anti-necroptotic activity in LZ-induced mouse RAW264.7 cells assessed as increase in cell viability preincubated with compound followed by LPS and Z-VAD-FMK stimulation and measured after 16 hrs by CellTiter-Lumi luminescent cell viability assay. The format is functional, cell-based.
Series [19] deals with HT-29. The experiment in a line: Effect on cell morphology in TSZ-induced necroptotic human HT-29 cells at 10 uM measured after 12 hrs by Live-cell super-resolution panoramic microscopic analysis. It counts as functional, cell-based.
Series [20] relates to HT-29. The experiment in a line: Downregulation of MLKL protein level in human HT-29 cells at 6 uM preincubated with Z-VAD-FMK for 2 hrs followed by compound addition and measured after 9 hrs by Western blot analysis. The format is functional, cell-based.
Series [21] concerns HT-29. As to the kind of experiment: Downregulation of RIPK3 protein level in human HT-29 cells incubated for 9 hrs by Western blot analysis. The format is functional, cell-based. The note with it: dose 0.75-6 µM.
Series [22] is described as follows: Acute toxicity in male C57BL/6J mouse assessed as structural changes in liver at 2 g/Kg, IG measured after 72 hrs by H and E staining based analysis. The format is tissue-based. The note with it: in vivo, po, 2000 mg/kg.
Series [23] deals with HT-29. As to the kind of experiment: Downregulation of RIPK3 protein level in human HT-29 cell supernatant at 6 uM measured after 9 hrs by Western blot analysis. It counts as functional, cell-based.

Regarding `Cn1ccc(-c2ccc(NC(=O)[C@]34CCC(C)(C)C[C@H]3[C@H]3C(=O)C=C5[C@@]6(C)C=C(C#N)C(=O)C(C)(C)[C@@H]6CC[C@@]5(C)[C@]3(C)CC4)cc2)n1`, the result in series [1], in series [2], in series [3], in [6], in [10] and in series [12] was Active. The result in series [14], in series [19], in [20] and in [23] was Active. For the same molecule, the Activity entry was “Non-toxic” in [4]; “Non-toxic” in [5]; “Non-toxic” in series [7]; “Non-toxic” in series [8]; “Active; Significant Effect Observed” in [9]; “Dose-dependent-effect” in series [11]. Moreover, the Activity result in [18] is “Dose-dependent-effect”; in series [21], “Dose-dependent-effect”; in series [22], “Non-toxic”. Further, the inhibition entry in series [13], in [15] and in [16] was “Active” each time. The EC50 in series [17] is 4.12 µM.

The term EC50 denotes the concentration at which the effect is half-maximal.
